Common to all, as to type: physicochemical
A short description of series [1]: Study of long-term and acceleration stabilities (XRPD). Particulars: both 25° C./60% RH and 40° C./75% RH, 3 months.
Series [2] can be described thus: Study of dynamic solubility (saturated solution, HPLC). Particulars: for Solubility assessment: FaSSIF, FeSSIF, SGF and water; for solubility at 1 h / solubility at 24 h / solubility at 4 h: thermodynamic from solid. An excerpt:
The high performance liquid chromatography (HPLC) data were collected in an Agilent 1260, and the used detector was a diode array detector (DAD). The HPLC method as described in the invention has the following parameters: […]

Series [3] in a line: Polarizing microscope (PLM) patterns. Particulars: from PLM patterns FIG. 29-31.
Series [4] is described as follows: Study of particle size distribution (PSD, laser particle size analytic meter). To be noted: for Particle size distribution (PSD pattern): from PSD patterns FIG. 26-28; for D10 / D50 (median size) / D90: volume distribution; for D10 / D50 (median size) / D90 / MV (average particle size as calculated in terms of the volume): dispersion medium Isopar G; for MV (average particle size as calculated in terms of the volume): wet process. How it is done:
The particle size distribution (PSD) results as described in the invention were collected on a S3500-type laser particle size analytic meter as produced by Microtrac Company. The Microtrac S3500 is equipped with a SDC (Sample Delivery Controller) feeding system. The test was conducted via a wet process, and the dispersion medium as used in the test was Isopar G. The laser particle size analytic meter has the following parameters: [table]

The nature of series [5]: Study of moisture absorption, dynamic vapor sorption (DVS) test. Particulars: for Moisture absorption characteristic according to Chinese Pharmacopoeia (2015): 25° C.±1° C.; for Moisture absorption characteristic according to Chinese Pharmacopoeia (2015) / Weight increase of 80% relative humidity: 80% relative humidity; for Weight increase of 80% relative humidity / Weight increase of 95% relative humidity: DVS, 25° C. Here is the method: The dynamic vapor sorption (DVS) pattern as described in the invention was collected on an intrinsic dynamic vapor sorption meter as produced by Surface Measurement Systems Ltd. The dynamic vapor sorption method has the following parameters: Temperature: 25° C., Loading gas, flowing speed: N2, 200 ml/min, Variation in mass per time: 0.002%/minute, Relative humidity range: 0% RH-95% RH. […] The obtained results were shown in Table 13: With regard to the descriptions for the moisture absorption characteristic and the definition for the increased weight of moisture absorption (Guidelines for the Moisture Absorption Tests of Drugs in the Appendix of Chinese Pharmacopoeia (2015), Experimental conditions: 25° C.±1° C., 80% relative humidity): […]

The nature of series [6]: Study of mechanical stability (ground by hand for 5 minutes, XRPD). Particulars: ground for 5 minutes by hand in a mortar.

Structures are written as SMILES. In brackets after ≈: the same amount, converted by molar mass.

For orientation: Solubility means the dissolved amount per volume that the medium holds. Low values mean little dissolved substance, high ones much dissolved substance. In the case of `N#Cc1ccc(Oc2ccc3c(c2)COB3O)cc1` [Crystal form II, 4-[(1,3-dihydro-1-hydroxyl-2,1-benzoxaborolane-5-yl)oxy]benzonitrile], the “Stability of the crystal form on storage” value in series [1] was “maintain their stability”. Also, the Solubility in series [2] (FaSSIF (pH = 6.5), 1 h) was found to be 11 µg/mL (≈ 43.8 µM); in series [2] (FaSSIF (pH = 6.5), 4 h), 5 µg/mL (≈ 19.9 µM); in series [2] (FaSSIF (pH = 6.5), 24 h), 8 µg/mL (≈ 31.9 µM); in series [2] (FeSSIF (pH = 5.0), 1 h), 18 µg/mL (≈ 71.7 µM); in series [2] (FeSSIF (pH = 5.0), 4 h), 49 µg/mL (≈ 195 µM); in series [2] (FeSSIF (pH = 5.0), 24 h), 55 µg/mL (≈ 219 µM). For the same molecule, the Solubility in series [2] (H2O, 1 h) came out at 3 µg/mL (≈ 11.9 µM); in series [2] (H2O, 4 h), 1 µg/mL (≈ 3.98 µM); in series [2] (H2O, 24 h), 6 µg/mL (≈ 23.9 µM); in series [2] (SGF (pH = 1.8), 1 h) it was 10 µg/mL (≈ 39.8 µM); in series [2] (SGF (pH = 1.8), 4 h), 26 µg/mL (≈ 104 µM); in series [2] (SGF (pH = 1.8), 24 h) it was 15 µg/mL (≈ 59.7 µM). Besides, the Solubility assessment entry in series [2] is reported as “in line with medicinal requirements”. For the same molecule, the “Particle sizes of the particles (PLM pattern)” value (shortened to “Particle sizes of the particles”) in series [3] is on record as “homogeneous”. In addition, the “Particle size distribution (PSD pattern)” value in series [4] was “homogeneous”. Besides, the D10 in series [4] came to 8.24 μm. For the same molecule, in series [4], the “D50 (median size)” value is given as 20.46 μm. Besides, the D90 in series [4] was 40.42 μm. Further, in series [4], the “MV (average particle size as calculated in terms of the volume)” value is 23.13 μm. The “Moisture absorption characteristic according to Chinese Pharmacopoeia (2015)” value in series [5] was “almost have no moisture absorption”. Further, the “Weight increase of 80% relative humidity” value in series [5] was 0.13%. The “Weight increase of 95% relative humidity” value in series [5] stood at 0.32%.

On to `N#Cc1ccc(Oc2ccc3c(c2)COB3O)cc1` [Crystal form IV, 4-[(1,3-dihydro-1-hydroxyl-2,1-benzoxaborolane-5-yl)oxy]benzonitrile], for which the Solubility is 9 µg/mL (≈ 35.8 µM) in series [2] (FaSSIF (pH = 6.5), 1 h); 17 µg/mL (≈ 67.7 µM) in series [2] (FaSSIF (pH = 6.5), 4 h); 13 µg/mL (≈ 51.8 µM) in series [2] (FaSSIF (pH = 6.5), 24 h); 62 µg/mL (≈ 247 µM) in series [2] (FeSSIF (pH = 5.0), 1 h); 61 µg/mL (≈ 243 µM) in series [2] (FeSSIF (pH = 5.0), 4 h); 56 µg/mL (≈ 223 µM) in series [2] (FeSSIF (pH = 5.0), 24 h). Moreover, the Solubility in series [2] (H2O, 4 h) was 6 µg/mL (≈ 23.9 µM); in series [2] (H2O, 24 h) it was 4 µg/mL (≈ 15.9 µM); in series [2] (SGF (pH = 1.8), 1 h) it was 31 µg/mL (≈ 123 µM); in series [2] (SGF (pH = 1.8), 4 h), 27 µg/mL (≈ 108 µM); in series [2] (SGF (pH = 1.8), 24 h), 26 µg/mL (≈ 104 µM). Also, the Solubility assessment entry in series [2] is “in line with medicinal requirements”. Besides, the “Particle sizes of the particles” value in series [3] is listed as “homogeneous”. Also, the Final crystal form result in series [6] was “Crystal form IV”; in series [6] (listed as crystal form IV) it was “not changed”. Further, the “Particle size distribution (PSD pattern)” value in series [4] is reported as “homogeneous”. For the same molecule, in series [4], the D10 is listed as 13.43 μm. In addition, in series [4], the “D50 (median size)” value is 33.68 μm. The molecule further displayed a D90 in series [4] of 99.36 μm. Also, the “MV (average particle size as calculated in terms of the volume)” value in series [4] is reported as 52.95 μm. In series [5] (listed as crystal IV), the “Moisture absorption characteristic according to Chinese Pharmacopoeia (2015)” value is listed as “slight moisture absorption”. Further, the “Weight increase of 80% relative humidity” value in series [5] came to 1.53%. Besides, in series [5], the “Weight increase of 95% relative humidity” value worked out at 4.90%.

As usually defined, the solubility is the dissolved amount per volume that the medium holds. A high value points to a readily soluble substance. As to `N#Cc1ccc(Oc2ccc3c(c2)COB3O)cc1` [Crystal form I, 4-[(1,3-dihydro-1-hydroxyl-2,1-benzoxaborolane-5-yl)oxy]benzonitrile], the “Stability of the crystal form on storage” value in series [1] was “maintain their stability”. Moreover, the Solubility in series [2] (FaSSIF (pH = 6.5), 4 h) was determined as 7 µg/mL (≈ 27.9 µM); in series [2] (FeSSIF (pH = 5.0), 1 h), 44 µg/mL (≈ 175 µM); in series [2] (H2O, 4 h), 5 µg/mL (≈ 19.9 µM); in series [2] (SGF (pH = 1.8), 1 h), 11 µg/mL (≈ 43.8 µM); in series [2] (SGF (pH = 1.8), 24 h) it was 38 µg/mL (≈ 151 µM). Moreover, the Solubility assessment entry in series [2] is “in line with medicinal requirements”. Further, the solubility at 1 h in series [2] (fasted state simulated intestinal fluid (FaSSIF), pH 6.5, fassif, FaSSIF (pH = 6.5), 1 h) is 6 µg/mL (≈ 23.9 µM); in series [2] (water, H2O, 1 h), 4 µg/mL (≈ 15.9 µM). Besides, the solubility at 24 h was 12 µg/mL (≈ 47.8 µM) in series [2] (fasted state simulated intestinal fluid (FaSSIF), pH 6.5, fassif, FaSSIF (pH = 6.5), 24 h); 59 µg/mL (≈ 235 µM) in series [2] (fed state simulated intestinal fluid (FeSSIF), pH 5, fessif, FeSSIF (pH = 5.0), 24 h); 6 µg/mL (≈ 23.9 µM) in series [2] (water, H2O, 24 h). Moreover, the solubility at 4 h in series [2] (fed state simulated intestinal fluid (FeSSIF), pH 5, fessif, FeSSIF (pH = 5.0), 4 h) is 59 µg/mL (≈ 235 µM); in series [2] (simulated gastric fluid (SGF), pH 1.8, simulated gastric fluid, SGF (pH = 1.8), 4 h), 37 µg/mL (≈ 147 µM). In addition, the “Particle sizes of the particles” value in series [3] was “homogeneous”. Besides, the results for the Final crystal form result in series [6] and in series [6] (listed as crystal form I) were “Crystal form I” and “not changed”, respectively. Also, the “Particle size distribution (PSD pattern)” value in series [4] is “homogeneous”. In series [4], the D10 is listed as 1.69 μm. Also, in series [4], the “D50 (median size)” value is reported as 5.52 μm. The same molecule came in with a D90 in series [4] of 20.35 μm. Further, the “MV (average particle size as calculated in terms of the volume)” value in series [4] is recorded as 9.62 μm. Besides, the “Moisture absorption characteristic according to Chinese Pharmacopoeia (2015)” value in series [5] was “almost have no moisture absorption”. The “Weight increase of 80% relative humidity” value in series [5] is reported as 0.14%. Moreover, the “Weight increase of 95% relative humidity” value in series [5] turned out to be 0.32%.

For `N#Cc1ccc(Oc2ccc3c(c2)COB3O)cc1` [Crystal form III, 4-[(1,3-dihydro-1-hydroxyl-2,1-benzoxaborolane-5-yl)oxy]benzonitrile], the “Stability of the crystal form on storage” value in series [1] is given as “maintain their stability”. In addition, the Solubility in series [2] (FaSSIF (pH = 6.5), 1 h) is 8 µg/mL (≈ 31.9 µM); in series [2] (FaSSIF (pH = 6.5), 4 h), 10 µg/mL (≈ 39.8 µM); in series [2] (FaSSIF (pH = 6.5), 24 h), 12 µg/mL (≈ 47.8 µM); in series [2] (FeSSIF (pH = 5.0), 1 h), 25 µg/mL (≈ 99.6 µM); in series [2] (FeSSIF (pH = 5.0), 4 h) it was 67 µg/mL (≈ 267 µM); in series [2] (FeSSIF (pH = 5.0), 24 h) it was 74 µg/mL (≈ 295 µM). In addition, the Solubility in series [2] (H2O, 1 h) worked out at 5 µg/mL (≈ 19.9 µM); in series [2] (H2O, 4 h), 4 µg/mL (≈ 15.9 µM); in series [2] (H2O, 24 h), 6 µg/mL (≈ 23.9 µM); in series [2] (SGF (pH = 1.8), 1 h) it was 33 µg/mL (≈ 131 µM); in series [2] (SGF (pH = 1.8), 4 h), 34 µg/mL (≈ 135 µM); in series [2] (SGF (pH = 1.8), 24 h), 40 µg/mL (≈ 159 µM). In addition, the Solubility assessment entry in series [2] is “in line with medicinal requirements”. In series [4], this molecule displayed a D10 of 21.68 μm. For the same molecule, the “D50 (median size)” value in series [4] worked out at 163.0 μm. In series [4], this molecule gave a D90 of 903.1 μm. The “MV (average particle size as calculated in terms of the volume)” value in series [4] is 289.0 μm. Besides, the “Moisture absorption characteristic according to Chinese Pharmacopoeia (2015)” value in series [5] was “almost have no moisture absorption”. The “Weight increase of 80% relative humidity” value in series [5] stood at 0.09%. Moreover, the “Weight increase of 95% relative humidity” value in series [5] was determined as 0.15%.

The values above are taken from patent US11773113B2, “Crystal forms of crisaborole in free form and preparation method and use thereof” (Anacor Pharmaceuticals, Inc., priority 2016, dated 2023).
